Test systems include A498 renal; A549 NSCLC; ACHN renal; CCRF-CEM leukemia; EKVX NSCLC; HCC-2998 colon; IGROV1 ovarian; NCI-H23 lung; OVCAR-4 ovarian; OVCAR-5 ovarian; SF-295 CNS; SF-539 CNS; SK-MEL-28 melanoma; SW-620 colon; UACC-257 melanoma.
Holding throughout (test): NCI tumour cell line growth inhibition, 48 h

For 9 molecules, TGI results are on record in PubChem BioAssay (NCI).

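Briefly, cells in 96-well plates were exposed to five compound concentrations for 48 h, and endpoints were estimated by linear interpolation. Definition used: TGI = concentration required for complete inhibition of growth.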

For the molecule `O=C(N/N=C(/c1nc2ccc([N+](=O)[O-])cc2[nH]c1=O)C(O)c1ccc([N+](=O)[O-])cc1)c1ccncc1` (stereo unspecified), the TGI in the assay with A498 renal, with A549 NSCLC, in the assay on ACHN renal, in the assay with CCRF-CEM leukemia, in the assay with EKVX NSCLC and with HCC-2998 colon was > 100 µM in each case. For the same molecule, the TGI in the assay with IGROV1 ovarian, in the assay with NCI-H23 lung, in the assay on OVCAR-4 ovarian, in the assay with OVCAR-5 ovarian, in the assay with SF-295 CNS and in the assay on SF-539 CNS was > 100 µM in each case. The TGI with SK-MEL-28 melanoma, in the assay on SW-620 colon and with UACC-257 melanoma was > 100 µM in each case.
On to `C/C(=N/NC(=O)C[n+]1ccccc1)C(CN(CC(C)C)CC(C)C)C(=O)Nc1ccc(C)cc1C` (stereo unspecified), for which the TGI is 92.9 µM in the assay on A498 renal; > 100 µM in the assay with A549 NSCLC; > 100 µM in the assay with ACHN renal; > 100 µM in the assay with CCRF-CEM leukemia; > 100 µM with EKVX NSCLC; > 100 µM in the assay on HCC-2998 colon. Further, the TGI with IGROV1 ovarian, in the assay with NCI-H23 lung, with OVCAR-4 ovarian, in the assay with OVCAR-5 ovarian, in the assay on SF-539 CNS and with SK-MEL-28 melanoma was > 100 µM each time. Moreover, the TGI with SW-620 colon and in the assay with UACC-257 melanoma was > 100 µM throughout.
Take `CCOC(=O)c1cnc2c(ccc3[nH]cccc32)c1=O`: the TGI in the assay with A498 renal, with A549 NSCLC, in the assay on ACHN renal, with CCRF-CEM leukemia, in the assay on EKVX NSCLC and in the assay on HCC-2998 colon was > 100 µM throughout. For the same molecule, the TGI with IGROV1 ovarian, in the assay with NCI-H23 lung, with OVCAR-4 ovarian, with OVCAR-5 ovarian, in the assay on SF-539 CNS and in the assay with SK-MEL-28 melanoma was > 100 µM throughout. Also, the TGI in the assay on SW-620 colon and in the assay with UACC-257 melanoma was > 100 µM each time.
Regarding `Cc1ccc(NC(=O)CSc2nnc(Cc3ccccc3)o2)cc1`, the TGI in the assay on A498 renal, in the assay with A549 NSCLC, in the assay with ACHN renal, in the assay with CCRF-CEM leukemia, in the assay on EKVX NSCLC and with HCC-2998 colon was > 100 µM each time. Further, the TGI in the assay with IGROV1 ovarian, in the assay on NCI-H23 lung, in the assay on OVCAR-4 ovarian, in the assay with OVCAR-5 ovarian, with SF-295 CNS and with SF-539 CNS was > 100 µM in each case. Further, the TGI in the assay with SK-MEL-28 melanoma, with SW-620 colon and in the assay on UACC-257 melanoma was > 100 µM in each case.
For the molecule `CCCCNC(=NCc1ccccc1)NC#N`, the TGI in the assay on A498 renal, with A549 NSCLC, in the assay on ACHN renal, in the assay on CCRF-CEM leukemia, with EKVX NSCLC and with HCC-2998 colon was > 100 µM each time. Further, the TGI in the assay with IGROV1 ovarian, in the assay with NCI-H23 lung, in the assay on OVCAR-4 ovarian, in the assay on OVCAR-5 ovarian, in the assay with SF-295 CNS and in the assay on SF-539 CNS was > 100 µM in each case. The TGI in the assay on SK-MEL-28 melanoma and with SW-620 colon was > 100 µM in each case.
For the molecule `Clc1ccc(CCc2ccncn2)c(Cl)c1`, the TGI in the assay with A498 renal, with A549 NSCLC, in the assay on ACHN renal, in the assay with EKVX NSCLC, in the assay with HCC-2998 colon and with IGROV1 ovarian was > 100 µM in each case. Further, the TGI in the assay with NCI-H23 lung, in the assay with OVCAR-4 ovarian, in the assay on OVCAR-5 ovarian, with SF-295 CNS, in the assay with SF-539 CNS and with SK-MEL-28 melanoma was > 100 µM throughout. In addition, the TGI in the assay with SW-620 colon and in the assay with UACC-257 melanoma was > 100 µM throughout.
With `Oc1cc(CN2CCOCCOCCOCCOCC2)c(O)cc1CN1CCOCCOCCOCCOCC1`, the TGI was > 100 µM in the assay on A498 renal; > 100 µM in the assay on A549 NSCLC; > 59.2 µM in the assay on ACHN renal; 44 µM in the assay on CCRF-CEM leukemia; > 100 µM in the assay on EKVX NSCLC; > 100 µM with HCC-2998 colon. For the same molecule, the TGI is > 100 µM in the assay with IGROV1 ovarian; > 100 µM with NCI-H23 lung; 34 µM with OVCAR-4 ovarian; 61.6 µM with OVCAR-5 ovarian; > 100 µM in the assay on SF-295 CNS; > 100 µM in the assay on SF-539 CNS. Moreover, the values for the TGI in the assay with SK-MEL-28 melanoma, in the assay on SW-620 colon and with UACC-257 melanoma were 54.7 µM, 53.1 µM and > 100 µM, respectively.
Consider `Cc1cc(C)c2c(c1)N[S@@](=O)S2`, for which the TGI is > 100 µM in the assay on A498 renal; > 100 µM in the assay with A549 NSCLC; 65.7 µM with ACHN renal; 61.3 µM in the assay with CCRF-CEM leukemia; > 100 µM in the assay on EKVX NSCLC; > 100 µM with HCC-2998 colon. Further, the TGI with IGROV1 ovarian was > 100 µM; in the assay with NCI-H23 lung, > 100 µM; in the assay on OVCAR-4 ovarian, 61.3 µM; with OVCAR-5 ovarian, 81.9 µM; in the assay on SF-295 CNS, > 100 µM; in the assay on SF-539 CNS, 50.5 µM. In addition, the TGI in the assay on SK-MEL-28 melanoma worked out at 95.1 µM; with SW-620 colon, 16.5 µM; in the assay on UACC-257 melanoma, 35.7 µM.
As for `O=C(Cc1ccc([N+](=O)[O-])c([N+](=O)[O-])c1CC(=O)C(=O)Nc1cc(Cl)ccc1Cl)C(=O)Nc1cc(Cl)ccc1Cl`, the TGI in the assay with A498 renal, in the assay with A549 NSCLC, in the assay with ACHN renal, in the assay with CCRF-CEM leukemia, in the assay with EKVX NSCLC and in the assay with HCC-2998 colon was > 100 µM each time. In addition, the TGI with IGROV1 ovarian, in the assay on NCI-H23 lung, with OVCAR-4 ovarian, in the assay with OVCAR-5 ovarian, in the assay on SF-295 CNS and with SF-539 CNS was > 100 µM throughout. Also, the TGI in the assay on SK-MEL-28 melanoma, with SW-620 colon and in the assay with UACC-257 melanoma was > 100 µM each time.
